Molecules are shown by their SMILES. Some results are limits rather than exact numbers.

As for `CN(C)CCNC(=O)CN(c1ccc(N/C(=C2\C(=O)Nc3ccccc32)c2ccccc2)cc1)S(C)(=O)=O` [Example 194, (Z)-3-{1-[4-(N-(2-dimethylamino-ethylaminocarbonylmethyl)-N-methylsulphonyl-amino)-phenylamino]-1-phenyl-methylidene}-2-indolinone], the melting point (as a rule, the temperature of the solid-liquid transition) lay in the range of 214 to 216 °C.
In the case of `CCOC(=O)CN(C)C(=O)c1cccc(N/C(=C2\C(=O)Nc3ccccc32)c2ccccc2)c1` [Example 25, (Z)-3-{1-[3-(N-ethoxycarbonylmethyl-N-methyl-aminocarbonyl)-phenylamino]-1-phenyl-methylidene}-2-indolinone] it was 148 to 150 °C.
In the case of `CCOC(=O)CCNCc1cccc(N/C(=C2\C(=O)Nc3ccc([N+](=O)[O-])cc32)c2ccccc2)c1` [Example 112, (Z)-3-{1-[3-(2-ethoxycarbonyl-ethylaminomethyl)-phenylamino]-1-phenyl-methylidene}-5-nitro-2-indolinone] it was 142 to 145 °C; in that of `O=C(O)Cc1ccc(N/C(=C2\C(=O)Nc3ccccc32)c2ccccc2)cc1` [Example 16, (Z)-3-[1-(4-carboxymethyl-phenylamino)-1-phenyl-methylidene]-2-indolinone], 214 to 216 °C; in that of `CN(CC(=O)O)C(=O)c1ccc(N/C(=C2\C(=O)Nc3ccccc32)c2ccccc2)cc1` [Example 395, (Z)-3-{1-[4-(N-carboxymethyl-N-methyl-aminocarbonyl)-phenylamino]-1-phenyl-methylidene}-2-indolinone], 168 to 170 °C.
In the case of `CCS(=O)(=O)N(CCN1CCOCC1)c1ccc(N/C(=C2\C(=O)Nc3ccccc32)c2ccccc2)cc1` [Example 308, (Z)-3-{1-[4-(N-(2-morpholinoethyl)-N-ethylsulphonyl-amino)-phenylamino]-1-phenyl-methylidene}-2-indolinone] it was 222 to 224 °C.
The compound `O=C1Nc2ccccc2/C1=C(/Nc1ccc(OCCCN2CCCCC2)cc1)c1ccccc1` [Example 287, (Z)-3-{1-[4-(3-piperidinopropyloxy)-phenylamino]-1-phenyl-methylidene}-2-indolinone] had a melting point of 223 to 225 °C.
In the case of `CCN(CC)C(=O)c1ccc(N/C(=C2\C(=O)Nc3ccccc32)c2ccccc2)cc1` it was 202 to 204 °C.
Consider `Nc1cccc(N/C(=C2\C(=O)Nc3ccccc32)c2ccccc2)c1` [Example 69, (Z)-3-[1-(3-aminophenylamino)-1-phenyl-methylidene]-2-indolinone], for which the melting point was in the range of 267 to 268 °C.
The value for `CC(C)(C)OC(=O)NCc1ccc(N/C(=C2\C(=O)Nc3ccc([N+](=O)[O-])cc32)c2ccc(CNC(=O)c3ccccc3C(=O)O)cc2)cc1` [Example 147, (Z)-3-{1-[4-tert.butoxycarbonylaminomethyl-phenylamino]-1-[4-(2-carboxyphenyl)-carbonylaminomethyl-phenyl]-methylidene}-5-nitro-2-indolinone] was 138 °C (dec.); that for `CN(C(=O)CN1CCN(Cc2ccccc2)CC1)c1ccc(N/C(=C2\C(=O)Nc3ccccc32)c2ccccc2)cc1` [Example 53, (Z)-3-{1-[4-(N-(4-benzylpiperazinomethylcarbonyl)-N-methyl-amino)-phenylamino]-1-phenyl-methylidene}-2-indolinone] was 157 to 158 °C; that for `COCCN(C)C(=O)c1ccc(N/C(=C2\C(=O)Nc3ccccc32)c2ccccc2)cc1` [Example 389, (Z)-3-{1-[4-(N-(2-methoxyethyl)-N-methyl-aminocarbonyl)-phenylamino]-1-phenyl-methylidene}-2-indolinone] was 198 to 200 °C.
The value for `CC(C)(C)OC(=O)NC(Cc1ccc(N/C(=C2\C(=O)Nc3ccc([N+](=O)[O-])cc32)c2ccccc2)cc1)C(=O)O` (centres unmarked) [Example 226, (Z)-3-{1-[4-(2-tert.butoxycarbonylamino-2-carboxy-ethyl)-phenylamino]-1-phenyl-methylidene}-5-nitro-2-indolinone] was 235 °C (dec.); that for `CN(Cc1ccc(N/C(=C2\C(=O)Nc3ccc([N+](=O)[O-])cc32)c2ccccc2)cc1)C1CCCC1` [Example 277, (Z)-3-{1-[4-(N-cyclopentyl-N-methyl-aminomethyl)-phenylamino]-1-phenyl-methylidene}-5-nitro-2-indolinone] was 228 °C; that for `CCCC(=O)N(CCN1CCOCC1)c1ccc(N/C(=C2\C(=O)Nc3ccccc32)c2ccccc2)cc1` [Example 351, (Z)-3-{1-[4-(N-(2-morpholinoethyl)-N-propylcarbonyl-amino)-phenylamino]-1-phenyl-methylidene}-2-indolinone] was 219 °C.
In the case of `CNC(=O)CN(c1cccc(N/C(=C2\C(=O)Nc3ccccc32)c2ccccc2)c1)S(C)(=O)=O` [Example 320, (Z)-3-{1-[3-(N-methylaminocarbonylmethyl-N-methylsulphonyl-amino)-phenylamino]-1-phenyl-methylidene}-2-indolinone] it was 163 °C; in that of `CC(=O)N(C)Cc1ccc(N/C(=C2\C(=O)Nc3ccc([N+](=O)[O-])cc32)c2ccccc2)cc1` [Example 122, (Z)-3-{1-[4-(N-acetyl-N-methyl-aminomethyl)-phenylamino]-1-phenyl-methylidene}-5-nitro-2-indolinone], 307 °C; in that of `CN(C)C(=O)CN(C)S(=O)(=O)c1ccc(N/C(=C2\C(=O)Nc3ccc([N+](=O)[O-])cc32)c2ccccc2)cc1` [Example 415, (Z)-3-{1-[4-(N-dimethylaminocarbonylmethyl-N-methyl-aminosulphonyl)-phenylamino]-1-phenyl-methylidene}-5-nitro-2-indolinone], 277 to 278 °C.
As for `COC1CCN(CCc2ccc(N/C(=C3\C(=O)Nc4ccc([N+](=O)[O-])cc43)c3ccccc3)cc2)CC1` [Example 261, (Z)-3-{1-[4-(2-(4-methoxypiperidino)-ethyl)-phenylamino]-1-phenyl-methylidene}-5-nitro-2-indolinone], the melting point was 212 to 214 °C.
In the case of `COCCNCC(=O)N(C)c1ccc(N/C(=C2\C(=O)Nc3ccccc32)c2ccccc2)cc1` [Example 371, (Z)-3-{1-[4-(N-(2-methoxyethylaminomethylcarbonyl)-N-methyl-amino)-phenylamino]-1-phenyl-methylidene}-2-indolinone] it was 186 to 188 °C.
In the case of `Cl.NCc1ccc(N/C(=C2\C(=O)Nc3ccc([N+](=O)[O-])cc32)c2ccccc2)cc1` it was over 370 °C; in that of `CS(=O)(=O)NCc1ccc(N/C(=C2\C(=O)Nc3ccc([N+](=O)[O-])cc32)c2ccccc2)cc1` [Example 167, (Z)-3-[1-(4-methylsulphonylaminomethyl-phenylamino)-1-phenyl-methylidene]-5-nitro-2-indolinone], 294 to 296 °C.
As to `O=C1Nc2ccc([N+](=O)[O-])cc2/C1=C(/Nc1ccc(CN2CCS(=O)(=O)CC2)cc1)c1ccccc1` [Example 231, (Z)-3-{1-[4-((1,1-dioxothiomorpholino)-methyl)-phenylamino]-1-phenyl-methylidene}-5-nitro-2-indolinone], the melting point is 328 to 329 °C (dec.).
For `O=CN(CCN1CCOCC1)c1ccc(N/C(=C2\C(=O)Nc3ccccc32)c2ccccc2)cc1` [Example 347, (Z)-3-{1-[4-(N-(2-morpholinoethyl)-N-formyl-amino)-phenylamino]-1-phenyl-methylidene}-2-indolinone], the melting point came to 218 °C.
`O=C1Nc2ccc([N+](=O)[O-])cc2/C1=C(/Nc1ccc(CNc2ccccc2)cc1)c1ccccc1` [Example 233, (Z)-3-{1-[4-(phenylaminomethyl)-phenylamino]-1-phenyl-methylidene}-5-nitro-2-indolinone] had a melting point of 274 to 277 °C.
In the case of `CNC(=O)CN(c1ccc(N/C(=C2\C(=O)Nc3ccccc32)c2ccccc2)cc1)S(C)(=O)=O` [Example 192, (Z)-3-{1-[4-(N-methylaminocarbonylmethyl-N-methylsulphonyl-amino)-phenylamino]-1-phenyl-methylidene}-2-indolinone] it was 268 to 270 °C; in that of `O=C1Nc2ccc([N+](=O)[O-])cc2/C1=C(/Nc1ccc(CCN2CCC(C(=O)O)CC2)cc1)c1ccccc1` [Example 263, (Z)-3-{1-[4-(2-(4-carboxypiperidino)-ethyl)-phenylamino]-1-phenyl-methylidene}-5-nitro-2-indolinone], 287 to 288 °C.
The value for `CNC(=O)CN(C(C)=O)c1ccc(N/C(=C2\C(=O)Nc3ccccc32)c2ccccc2)cc1` [Example 354, (Z)-3-{1-[4-(N-methylaminocarbonylmethyl-N-acetyl-amino)-phenylamino]-1-phenyl-methylidene}-2-indolinone] was 270 °C (dec.); that for `CNC(=O)CN(C(=O)c1ccccc1)c1ccc(N/C(=C2\C(=O)Nc3ccccc32)c2ccccc2)cc1` [Example 362, (Z)-3-{1-[4-(N-methylaminocarbonylmethyl-N-benzoyl-amino)-phenylamino]-1-phenyl-methylidene}-2-indolinone] was 260 to 262 °C; that for `CC1CCN(Cc2ccc(N/C(=C3\C(=O)Nc4ccc([N+](=O)[O-])cc43)c3ccccc3)cc2)CC1` [Example 169, (Z)-3-{1-[4-(4-methylpiperidinomethyl)-phenylamino]-1-phenyl-methylidene}-5-nitro-2-indolinone] was 161 °C.
In the case of `CCOC(=O)CN(C)S(=O)(=O)c1ccc(N/C(=C2\C(=O)Nc3ccccc32)c2ccccc2)cc1` [Example 408, (Z)-3-{1-[4-(N-ethoxycarbonylmethyl-N-methyl-aminosulphonyl)-phenylamino]-1-phenyl-methylidene}-2-indolinone] it was 178 to 180 °C.
Consider `COCCNC(=O)c1ccc(N/C(=C2\C(=O)Nc3ccccc32)c2ccccc2)cc1` [Example 388, (Z)-3-{1-[4-(2-methoxyethylaminocarbonyl)-phenylamino]-1-phenyl-methylidene}-2-indolinone], for which the melting point is 277 to 279 °C.

These data come from patent publication US6855710B2, “Substituted indolines with an inhibitory effect on various kinases and complexes of CDKs” (Boehringer Ingelheim Pharma KG, priority 1998, dated 2005).
